Assay [1] addresses RAC-alpha serine/threonine-protein kinase (Homo sapiens) (UniProt P31749). In words: Percentage PKBalpha activity remaining in the presence of 0.1uM inhibitor.
For assay [2], the target named is Mitogen-activated protein kinase 11 (Homo sapiens) (UniProt Q15759). Briefly: Percentage p38beta activity remaining in the presence of 0.1uM inhibitor.
Assay [3] addresses Rho-associated protein kinase 2 (Homo sapiens) (UniProt O75116). In words: Percentage ROCK2 activity remaining in the presence of 0.1uM inhibitor.
In assay [4] the target is T1, Eukaryotic elongation factor 2 kinase (Homo sapiens) (UniProt O00418).
T1 sequence (whole entry): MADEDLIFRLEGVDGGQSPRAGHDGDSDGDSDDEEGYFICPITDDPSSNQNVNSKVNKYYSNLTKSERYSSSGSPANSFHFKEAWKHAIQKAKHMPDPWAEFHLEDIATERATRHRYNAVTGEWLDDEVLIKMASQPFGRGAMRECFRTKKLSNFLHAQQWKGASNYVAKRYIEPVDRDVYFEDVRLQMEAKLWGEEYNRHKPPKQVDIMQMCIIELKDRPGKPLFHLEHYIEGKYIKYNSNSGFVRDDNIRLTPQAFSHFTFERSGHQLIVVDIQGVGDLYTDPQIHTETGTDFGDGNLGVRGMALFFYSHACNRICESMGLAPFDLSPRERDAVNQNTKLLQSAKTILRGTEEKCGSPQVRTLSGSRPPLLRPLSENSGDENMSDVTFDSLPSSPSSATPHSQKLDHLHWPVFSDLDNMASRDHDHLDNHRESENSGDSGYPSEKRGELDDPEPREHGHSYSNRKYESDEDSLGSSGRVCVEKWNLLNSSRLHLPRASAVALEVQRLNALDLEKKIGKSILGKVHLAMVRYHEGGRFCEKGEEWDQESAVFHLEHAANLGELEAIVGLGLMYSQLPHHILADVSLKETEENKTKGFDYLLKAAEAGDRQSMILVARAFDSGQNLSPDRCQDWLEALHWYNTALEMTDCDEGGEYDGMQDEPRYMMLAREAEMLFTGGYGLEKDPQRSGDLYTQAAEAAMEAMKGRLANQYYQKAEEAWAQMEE
Briefly: Percentage EF2K activity remaining in the presence of 0.1uM inhibitor.

The target in assay [5] is Ribosomal protein S6 kinase beta-1 (Homo sapiens, UniProt P23443). In words: Percentage S6K1 activity remaining in the presence of 0.1uM inhibitor.
The target in assay [6] is T2, Mitogen-activated protein kinase 13 (Homo sapiens) (UniProt O15264).
T2 sequence (whole entry): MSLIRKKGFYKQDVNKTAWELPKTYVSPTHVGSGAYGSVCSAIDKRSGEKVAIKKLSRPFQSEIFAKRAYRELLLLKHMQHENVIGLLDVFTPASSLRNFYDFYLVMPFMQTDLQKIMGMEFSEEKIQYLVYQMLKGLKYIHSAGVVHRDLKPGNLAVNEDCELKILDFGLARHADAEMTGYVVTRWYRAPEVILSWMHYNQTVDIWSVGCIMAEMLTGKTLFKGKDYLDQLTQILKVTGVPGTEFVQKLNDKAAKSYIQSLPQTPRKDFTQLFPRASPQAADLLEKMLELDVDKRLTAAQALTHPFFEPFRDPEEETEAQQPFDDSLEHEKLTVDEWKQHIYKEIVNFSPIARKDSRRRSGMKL
In words: Percentage p38delta activity remaining in the presence of 0.1uM inhibitor.

In assay [7] the target is T3, Serine/threonine-protein kinase Nek2 (Homo sapiens) (UniProt P51955).
T3 sequence (whole entry): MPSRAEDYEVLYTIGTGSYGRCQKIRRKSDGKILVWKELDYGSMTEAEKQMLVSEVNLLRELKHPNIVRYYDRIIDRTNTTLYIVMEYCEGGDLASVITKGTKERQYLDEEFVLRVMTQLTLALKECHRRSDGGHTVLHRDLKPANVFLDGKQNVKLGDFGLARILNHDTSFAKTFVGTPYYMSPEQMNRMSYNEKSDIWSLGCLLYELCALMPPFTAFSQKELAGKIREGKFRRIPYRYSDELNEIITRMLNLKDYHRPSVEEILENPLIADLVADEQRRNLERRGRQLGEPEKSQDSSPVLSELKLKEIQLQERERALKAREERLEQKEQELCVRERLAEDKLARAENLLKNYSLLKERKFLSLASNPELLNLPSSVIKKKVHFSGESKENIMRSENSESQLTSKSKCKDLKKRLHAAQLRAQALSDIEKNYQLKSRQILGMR
In words: Percentage NEK2a activity remaining in the presence of 0.1uM inhibitor.

The target of assay [8] is Tyrosine-protein kinase CSK (Homo sapiens, UniProt P41240). In words: Percentage CSK activity remaining in the presence of 0.1uM inhibitor.
For assay [9], the target named is T4, Serine/threonine-protein kinase BRSK2 (Homo sapiens) (UniProt Q8IWQ3).
T4 sequence (whole entry): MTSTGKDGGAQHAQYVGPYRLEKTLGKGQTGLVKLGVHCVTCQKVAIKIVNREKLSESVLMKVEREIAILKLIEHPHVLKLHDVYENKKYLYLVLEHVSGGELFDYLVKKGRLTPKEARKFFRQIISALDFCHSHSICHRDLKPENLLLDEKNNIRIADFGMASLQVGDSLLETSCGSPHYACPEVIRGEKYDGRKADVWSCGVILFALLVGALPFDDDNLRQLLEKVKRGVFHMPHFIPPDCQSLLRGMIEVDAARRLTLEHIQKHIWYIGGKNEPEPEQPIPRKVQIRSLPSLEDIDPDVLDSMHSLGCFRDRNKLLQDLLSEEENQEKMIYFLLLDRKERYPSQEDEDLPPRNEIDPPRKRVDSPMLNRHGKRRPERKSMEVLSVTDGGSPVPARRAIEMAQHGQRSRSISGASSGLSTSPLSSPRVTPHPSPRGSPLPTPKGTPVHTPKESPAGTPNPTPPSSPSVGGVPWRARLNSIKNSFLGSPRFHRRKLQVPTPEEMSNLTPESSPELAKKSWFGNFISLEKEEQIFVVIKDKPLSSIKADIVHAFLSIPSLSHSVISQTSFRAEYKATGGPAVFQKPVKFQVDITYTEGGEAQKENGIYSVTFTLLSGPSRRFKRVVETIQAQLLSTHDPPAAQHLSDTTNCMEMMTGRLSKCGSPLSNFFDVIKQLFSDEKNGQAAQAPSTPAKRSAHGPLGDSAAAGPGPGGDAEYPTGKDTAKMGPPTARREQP
In words: Percentage BRSK2 activity remaining in the presence of 0.1uM inhibitor.

Mitogen-activated protein kinase 11 (Homo sapiens), sequence (Q15759 whole entry): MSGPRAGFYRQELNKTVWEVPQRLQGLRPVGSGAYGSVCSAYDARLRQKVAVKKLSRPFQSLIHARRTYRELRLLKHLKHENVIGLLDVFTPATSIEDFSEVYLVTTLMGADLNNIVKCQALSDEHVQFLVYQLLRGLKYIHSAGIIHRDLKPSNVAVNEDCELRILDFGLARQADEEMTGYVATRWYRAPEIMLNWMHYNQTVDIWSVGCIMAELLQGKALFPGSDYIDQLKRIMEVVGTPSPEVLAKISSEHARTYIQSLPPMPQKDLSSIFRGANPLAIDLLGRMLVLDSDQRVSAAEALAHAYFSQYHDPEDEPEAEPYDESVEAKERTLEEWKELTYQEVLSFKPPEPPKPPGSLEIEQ
Ribosomal protein S6 kinase beta-1, sequence (P23443 whole entry, looked up): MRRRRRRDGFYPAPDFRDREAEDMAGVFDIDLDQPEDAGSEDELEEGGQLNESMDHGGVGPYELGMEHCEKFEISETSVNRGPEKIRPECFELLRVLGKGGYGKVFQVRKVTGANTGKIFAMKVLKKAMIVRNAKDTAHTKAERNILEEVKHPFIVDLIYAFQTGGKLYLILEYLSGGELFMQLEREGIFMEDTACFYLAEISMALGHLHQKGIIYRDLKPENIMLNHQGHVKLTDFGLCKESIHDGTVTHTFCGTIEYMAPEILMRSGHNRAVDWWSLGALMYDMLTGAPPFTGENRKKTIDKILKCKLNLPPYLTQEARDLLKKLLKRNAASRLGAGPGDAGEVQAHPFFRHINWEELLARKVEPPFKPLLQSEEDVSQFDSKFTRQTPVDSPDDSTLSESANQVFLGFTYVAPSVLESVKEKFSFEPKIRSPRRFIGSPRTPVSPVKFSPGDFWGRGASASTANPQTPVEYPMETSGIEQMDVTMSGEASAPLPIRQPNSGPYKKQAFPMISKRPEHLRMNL
RAC-alpha serine/threonine-protein kinase (Homo sapiens), sequence (P31749 whole entry): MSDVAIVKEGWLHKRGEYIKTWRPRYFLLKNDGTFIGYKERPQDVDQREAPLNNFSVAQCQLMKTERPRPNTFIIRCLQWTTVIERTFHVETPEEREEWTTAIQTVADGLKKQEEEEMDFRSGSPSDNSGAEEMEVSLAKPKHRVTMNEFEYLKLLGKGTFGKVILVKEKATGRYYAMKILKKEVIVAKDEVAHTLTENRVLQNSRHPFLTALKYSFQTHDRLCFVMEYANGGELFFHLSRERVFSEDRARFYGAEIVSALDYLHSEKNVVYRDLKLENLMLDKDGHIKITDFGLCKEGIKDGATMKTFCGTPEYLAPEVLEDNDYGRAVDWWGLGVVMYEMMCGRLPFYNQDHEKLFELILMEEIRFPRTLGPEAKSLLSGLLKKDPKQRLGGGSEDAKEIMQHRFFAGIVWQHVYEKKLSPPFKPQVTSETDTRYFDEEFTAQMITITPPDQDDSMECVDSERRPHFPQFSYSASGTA
Rho-associated protein kinase 2 (Homo sapiens), sequence (O75116 whole entry, looked up): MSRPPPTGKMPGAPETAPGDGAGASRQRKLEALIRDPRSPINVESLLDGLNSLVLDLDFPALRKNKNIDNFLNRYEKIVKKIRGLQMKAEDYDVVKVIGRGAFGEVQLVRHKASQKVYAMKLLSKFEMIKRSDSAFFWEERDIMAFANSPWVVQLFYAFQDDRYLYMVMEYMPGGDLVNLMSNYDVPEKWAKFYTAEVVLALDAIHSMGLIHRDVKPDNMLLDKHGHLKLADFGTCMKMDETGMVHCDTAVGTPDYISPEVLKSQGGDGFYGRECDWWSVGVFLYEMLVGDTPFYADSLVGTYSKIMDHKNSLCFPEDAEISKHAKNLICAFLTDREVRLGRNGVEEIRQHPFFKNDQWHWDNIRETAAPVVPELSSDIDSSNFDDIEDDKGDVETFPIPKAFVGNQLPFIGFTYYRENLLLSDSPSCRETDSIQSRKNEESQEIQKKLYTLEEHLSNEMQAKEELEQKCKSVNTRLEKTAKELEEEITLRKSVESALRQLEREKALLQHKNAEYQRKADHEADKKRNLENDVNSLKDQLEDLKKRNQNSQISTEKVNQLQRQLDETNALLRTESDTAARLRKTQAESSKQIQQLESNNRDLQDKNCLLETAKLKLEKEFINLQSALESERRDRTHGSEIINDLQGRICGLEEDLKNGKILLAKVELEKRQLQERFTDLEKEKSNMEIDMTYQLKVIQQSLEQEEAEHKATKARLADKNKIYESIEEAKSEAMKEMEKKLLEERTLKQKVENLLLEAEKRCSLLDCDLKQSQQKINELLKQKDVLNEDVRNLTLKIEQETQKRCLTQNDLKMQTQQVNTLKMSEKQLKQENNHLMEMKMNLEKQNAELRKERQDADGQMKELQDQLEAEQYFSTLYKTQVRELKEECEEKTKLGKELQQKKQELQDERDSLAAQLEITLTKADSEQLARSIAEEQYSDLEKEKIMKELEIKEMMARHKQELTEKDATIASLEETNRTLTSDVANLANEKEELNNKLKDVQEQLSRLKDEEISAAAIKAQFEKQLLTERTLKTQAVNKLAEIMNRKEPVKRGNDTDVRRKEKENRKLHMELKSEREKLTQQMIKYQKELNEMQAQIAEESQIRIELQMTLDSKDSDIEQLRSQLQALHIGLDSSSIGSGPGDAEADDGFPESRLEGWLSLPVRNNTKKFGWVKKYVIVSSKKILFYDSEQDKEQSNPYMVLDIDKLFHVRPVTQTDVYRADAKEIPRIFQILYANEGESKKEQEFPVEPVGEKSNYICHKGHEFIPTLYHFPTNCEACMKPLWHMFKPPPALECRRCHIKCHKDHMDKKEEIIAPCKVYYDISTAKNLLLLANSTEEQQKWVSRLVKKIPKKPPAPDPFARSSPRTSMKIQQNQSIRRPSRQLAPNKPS
Tyrosine-protein kinase CSK, sequence (P41240 2-450 limits assumed): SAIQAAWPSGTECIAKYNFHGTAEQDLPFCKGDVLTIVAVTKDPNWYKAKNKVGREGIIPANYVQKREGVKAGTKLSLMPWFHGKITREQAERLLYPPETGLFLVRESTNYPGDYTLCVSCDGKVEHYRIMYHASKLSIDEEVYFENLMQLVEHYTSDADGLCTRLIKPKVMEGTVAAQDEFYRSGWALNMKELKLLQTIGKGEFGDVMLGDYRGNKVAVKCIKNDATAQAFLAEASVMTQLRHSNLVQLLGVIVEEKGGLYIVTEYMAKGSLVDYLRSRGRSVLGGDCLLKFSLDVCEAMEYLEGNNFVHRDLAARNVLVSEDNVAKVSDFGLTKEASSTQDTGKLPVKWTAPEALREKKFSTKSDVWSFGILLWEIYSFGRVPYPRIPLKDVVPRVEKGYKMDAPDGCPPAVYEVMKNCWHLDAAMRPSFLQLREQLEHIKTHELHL

Consider `Cc1n[nH]c2ccc(-c3cncc(OC[C@@H](N)Cc4c[nH]c5ccccc45)c3)cc12`, for which the Activity is 3% in assay [1] (filed as antagonist); 105% in assay [2]; 8% in [3] (filed as antagonist); 94% in assay [4]; 32% in [5] (filed as antagonist); 68% in assay [6]. Also, the Activity in assay [7] is 95%; in assay [8], 93%; in assay [9], 79%.

For `O=C(NCCCNc1nc(Nc2cccc(NC(=O)N3CCCC3)c2)ncc1I)c1cccs1`, the Activity was 90% in assay [1]; 71% in [2]; 28% in [3] (filed as antagonist); 93% in assay [4]; 84% in [5]; 76% in assay [6]. Besides, the Activity is 95% in assay [7], 101% in assay [8] and 45% in assay [9] (filed as antagonist).

In the case of `CN(C)C[C@@H]1CCn2cc(c3ccccc32)C2=C(C(=O)NC2=O)c2cn(c3ccccc23)CCO1`, the Activity in [1] came to 90%; in [2], 109%; in assay [3], 94%; in assay [4], 90%; in assay [5], 52%; in [7], 91%. The Activity in assay [8] is 78%.

Regarding `Cn1c2ccccc2c2c3c(c4c5ccccc5n(CCC#N)c4c21)CNC3=O`, the Activity in assay [1] is 96%; in [2], 100%; in assay [4], 100%; in [5] (filed as antagonist) it was 12%; in [6], 82%; in assay [7], 87%. The results for the Activity in assay [8] and in [9] (filed as antagonist) were 75% and 46%, respectively.

Turning to `CC(C)[C@H](CO)Nc1nc(Nc2cccc(Cl)c2)c2ncn(C(C)C)c2n1` [PURVALANOLA], the Activity was determined as 95% in assay [1]; 90% in assay [2]; 93% in assay [3]; 95% in [4]; 87% in [5]; 98% in assay [6]. For the same compound, the Activity in assay [7] stood at 95%; in assay [8], 82%; in [9] it was 76%.

With `Cn1cc(C2=C(c3cn(CCCSC(=N)N)c4ccccc34)C(=O)NC2=O)c2ccccc21`, the Activity in assay [1] is 52%; in assay [2], 99%; in [3] it was 88%; in assay [4], 101%; in assay [5] (filed as antagonist) it was 20%; in [6], 92%. The results for the Activity in [7], in [8] and in assay [9] were 84%, 77% and 65%, respectively.

As for `CC(C)CCN1c2nc(Nc3cc(F)c(O)c(F)c3)ncc2N(C)C(=O)C1C` (stereo not given), the Activity was determined as 98% in assay [1]; 100% in assay [2]; 84% in assay [3]; 88% in assay [4]; 119% in [5]; 105% in [6]. The Activity in assay [7] worked out at 98%; in assay [8], 99%; in [9], 78%.
